In ChEMBL document CHEMBL4196231, “Peptidomimetics for Targeting Protein-Protein Interactions between DOT1L and MLL Oncofusion Proteins AF9 and ENL” (ACS Med Chem Lett, 2018):
Square brackets hold non-standard residues; d marks the D form. Peptide text beside a SMILES is read from it. * marks the point of attachment. Biotinyl(3aR,4S,6aS) = O=C1N[C@H]2[C@H](CCCCC(=O)*)SC[C@H]2N1; Ala(cPent) = N[C@@H](CC1CCCC1)C(=O)O; Cba = N[C@@H](CC1CCC1)C(=O)O; Dap = NC[C@H](N)C(=O)O; Ahx = NCCCCCC(=O)O

Legend:
[1] = molecular target: T1, Protein AF-9 (Homo sapiens, UniProt P42568); assay: Displacement of N-Flu-DOT1L from MBP-tagged AF9 (unknown origin) (487 to 568 residues) expressed in Escherichia coli BL21(DE3) measured after 3 hrs by fluorescence polarization assay
T1 sequence (P42568 whole entry): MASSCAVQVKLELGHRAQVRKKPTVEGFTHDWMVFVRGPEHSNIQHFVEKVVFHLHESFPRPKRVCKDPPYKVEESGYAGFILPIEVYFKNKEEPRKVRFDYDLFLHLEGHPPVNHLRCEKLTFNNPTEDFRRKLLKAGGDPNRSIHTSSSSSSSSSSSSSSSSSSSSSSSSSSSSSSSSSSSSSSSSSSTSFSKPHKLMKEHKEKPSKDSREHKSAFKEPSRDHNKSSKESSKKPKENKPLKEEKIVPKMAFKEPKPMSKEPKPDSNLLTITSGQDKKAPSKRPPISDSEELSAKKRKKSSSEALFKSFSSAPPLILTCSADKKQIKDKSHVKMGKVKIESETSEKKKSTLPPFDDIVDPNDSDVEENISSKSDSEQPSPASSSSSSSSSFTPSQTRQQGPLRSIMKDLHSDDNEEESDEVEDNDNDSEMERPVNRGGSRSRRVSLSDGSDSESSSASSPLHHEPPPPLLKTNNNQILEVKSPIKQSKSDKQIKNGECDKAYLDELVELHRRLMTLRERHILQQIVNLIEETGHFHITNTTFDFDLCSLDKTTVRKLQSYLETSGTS

[2] = molecular target: T2, Protein ENL (Homo sapiens, UniProt Q03111); assay: Displacement of N-Flu-DOT1L from MBP-tagged ENL (unknown origin) (489 to 559 residues) expressed in Escherichia coli BL21(DE3) measured after 3 hrs by fluorescence polarization assay
T2 sequence (Q03111 whole entry): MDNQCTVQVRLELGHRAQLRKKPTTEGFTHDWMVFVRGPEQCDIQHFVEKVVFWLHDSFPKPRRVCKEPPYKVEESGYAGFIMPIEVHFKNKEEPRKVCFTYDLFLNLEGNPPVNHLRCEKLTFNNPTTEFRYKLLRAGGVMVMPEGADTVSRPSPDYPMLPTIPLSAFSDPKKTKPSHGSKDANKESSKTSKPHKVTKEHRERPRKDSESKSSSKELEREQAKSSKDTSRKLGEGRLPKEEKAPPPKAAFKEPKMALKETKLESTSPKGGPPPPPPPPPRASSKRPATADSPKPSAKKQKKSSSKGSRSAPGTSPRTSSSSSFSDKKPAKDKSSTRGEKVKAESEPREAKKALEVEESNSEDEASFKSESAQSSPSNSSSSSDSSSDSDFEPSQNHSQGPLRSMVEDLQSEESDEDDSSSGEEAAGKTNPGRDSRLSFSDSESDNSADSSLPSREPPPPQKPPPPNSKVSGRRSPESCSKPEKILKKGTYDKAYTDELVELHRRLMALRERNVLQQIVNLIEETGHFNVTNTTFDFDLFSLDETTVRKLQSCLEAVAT

[3] = molecular target: T1, Protein AF-9; assay: Binding affinity to MBP-tagged AF9 (unknown origin) (487 to 568 residues) expressed in Escherichia coli BL21(DE3) by Bio-layer interferometry
[4] = molecular target: T2, Protein ENL; assay: Binding affinity to MBP-tagged ENL (unknown origin) (489 to 559 residues) expressed in Escherichia coli BL21(DE3) by Bio-layer interferometry

`CC(C)C[C@H](NC(=O)[C@@H]1CCCN1C(=O)[C@H](CC1CCCC1)NC(=O)[C@H](CN)NC(=O)[C@@H](NC(=O)[C@@H]1CCCN1C(=O)[C@H](CC(C)C)NC(=O)CCCCCNC(=O)CCCC[C@@H]1SC[C@H]2NC(=O)N[C@@H]12)C(C)C)C(=O)N(C)C` ({Biotinyl(3aR,4S,6aS)-Ahx}-LPV[Dap][Ala(cPent)]PL-NMe2) was tested, and the Ki [1] was 10 nM, the Ki [2] was 63 nM and the Kd [3] was 15 nM. It also gave a Kd [4] of 57 nM.

For `CC[C@H](C)[C@H](NC(=O)[C@H](CO)NC(=O)[C@H](CC1CCC1)NC(=O)[C@@H]1CCCN1C(=O)[C@H](CC(C)C)NC(C)=O)C(=O)N1CCC[C@H]1C(=O)N[C@@H](CC(C)C)C(=O)N(C)C` (Ac-LP[Cba]SIPL-NMe2), the IC50 [1] was 7230 nM, the Ki [1] was 1310 nM and the IC50 [2] was 23600 nM. It also gave a Ki [2] of 8040 nM.
